Where a name gives a salt, the structure may show the parent alone. Read-outs that look alike come from different tables or passages of the source.
Tests used:
Type in all cases: biochemical
[1] = test system: Human plasma; assay: Human plasma anticoagulation, thrombin time (TT); settings: concentration required to double the thrombin time, linear extrapolation
Description: (§1) Dog plasma and rat plasma is obtained from conscious mixed-breed hounds (either sex, Hazelton-LRE, Kalamazoo, Mich., U.S.A.) or from anesthetized male Sprague-Dawley rats (Harlan Sprague-Dawley, Inc., Indianapolis, Ind., U.S.A.) by venipuncture into 3.8 percent citrate. Fibrinogen is prepared from in-date ACD human blood as the fraction I-2 according to previous procedures and specifications. […] Human fibrinogen is also purchased as 98 percent pure/plasmin free from American Diagnostica, Greenwich, Conn. Coagulation reagents ACTIN, Thromboplastin, and Human plasma are from Baxter Healthcare Corp., Dade Division, Miami, Fla. Bovine thrombin from Parke-Davis ([…], Mich.) is used for coagulation assays in plasma.
(§2) Coagulation assay procedures are as previously described. […] A CoAScreener coagulation instrument (American LABor, Inc.) is used for all coagulation assay measurements. The prothrombin time (PT) is measured by adding 0.05 mL saline and 0.05 mL Thromboplastin-C reagent to 0.05 mL test plasma. The activated partial thromboplastin time (APTT) is measured by incubation of 0.05 mL test plasma with 0.05 mL Actin reagent for 120 seconds followed by 0.05 mL CaCl2 (0.02M). The thrombin time (TT) is measured by adding 0.05 mL saline and 0.05 mL thrombin (10 NIH units/mL) to 0.05 mL test plasma. The compounds of Formula I are added to human or animal plasma over a wide range of concentrations to determine prolongation effects on the APTT, PT, and TT assays. Linear extrapolations are performed to estimate the concentrations required to double the clotting time for each assay.

[2] = target: Human Thrombin (Homo sapiens, UniProt P00734); assay: Inhibition of amidase activity of thrombin (Kass)
[3] = test system: Human plasma; assay: Human plasma anticoagulation, activated partial thromboplastin time (APTT); settings: concentration required to double the APTT, linear extrapolation
Description: as §1, §2

[4] = test system: Human plasma; assay: Human plasma anticoagulation, prothrombin time (PT); settings: concentration required to double the PT, linear extrapolation
Description: as §1, §2

[5] = target: T1, factor Xa (Homo sapiens, UniProt P00742); assay: Kass with factor Xa, chromogenic substrate; settings: substrate N-Benzoyl-Ile-Glu-Gly-Arg-p-nitroanilide
T1 construct: Human factors X, Xa, IXa, XIa, and XIIa are purchased; purchased Enzyme Research Laboratories, South Bend, Ind
Description: (§3) By substantially following the procedures described above for human thrombin, and using other human blood coagulation system serine proteases and proteases of the fibrinolytic system with the appropriate chromogenic substrates, identified below, selectivity of the compounds of the present invention with respect to the coagulation factor serine proteases and with respect to the fibrinolytic system serine proteases are evaluated as well as their substantial lack of interference with serine proteases of the fibrinolytic system. Thrombin inhibitors preferably should spare fibrinolysis induced by urokinase, tissue plasminogen activator (t-PA) and streptokinase. This would be important to the therapeutic use of such agents as an adjunct to streptokinase, t-PA or urokinase thrombolytic therapy and to the use of such agents as an endogenous fibrinolysis-sparing (with respect to t-PA and urokinase) antithrombotic agent. In addition to the lack of interference with the amidase activity of the fibrinolytic proteases, such fibrinolytic system sparing can be studied by the use of human plasma clots and their lysis by the respective fibrinolytic plasminogen activators.
(§4) Human factors X, Xa, IXa, XIa, and XIIa are purchased from Enzyme Research Laboratories, South Bend, Ind.; human urokinase from Leo Pharmaceuticals, Denmark; and recombinant activated Protein C (aPC) is prepared at Eli Lilly and Co. substantially according to U.S. Patent No. 4,981,952. Chromogenic substrates: N-Benzoyl-Ile-Glu-Gly-Arg-p-nitroanilide (for factor Xa); N-Cbz-D-Arg-Gly-Arg-p-nitroanilide (for factor IXa assay as the factor Xa substrate); Pyroglutamyl-Pro-Arg-p-nitroanilide (for Factor XIa and for aPC); H-D-Pro-Phe-Arg-p-nitroanilide (for factor XIIa); and Pyroglutamyl-Gly-Arg-p-nitroanilide (for urokinase); are purchased from KabiVitrum, Stockholm, Sweden, or from Midwest Biotech, Fishers, Ind. Bovine trypsin is purchased from Worthington Biochemicals, Freehold, N.J., and human plasma kallikrein from Kabi Vitrum, Stockholm, Sweden. Chromogenic substrate H-D-Pro-Phe-Arg-p-nitroanilide for plasma kallikrein is purchased from Kabi Vitrum, Stockholm, Sweden. N-Benzoyl-Phe-Val-Arg-p-nitroanilide, the substrate for human thrombin and for trypsin, is synthesized according to procedures described above for the compounds of the present invention, using known methods of peptide coupling from commercially available reactants or purchased from Midwest Biotech, Fishers, Ind.

[6] = target: T2, Bovine trypsin (Bos taurus, UniProt P00760); assay: Kass with trypsin, chromogenic substrate; settings: substrate N-Benzoyl-Phe-Val-Arg-p-nitroanilide
T2 construct: Bovine trypsin is purchased; purchased Worthington Biochemicals, Freehold, N.J
T2 sequence (P00760 24-246): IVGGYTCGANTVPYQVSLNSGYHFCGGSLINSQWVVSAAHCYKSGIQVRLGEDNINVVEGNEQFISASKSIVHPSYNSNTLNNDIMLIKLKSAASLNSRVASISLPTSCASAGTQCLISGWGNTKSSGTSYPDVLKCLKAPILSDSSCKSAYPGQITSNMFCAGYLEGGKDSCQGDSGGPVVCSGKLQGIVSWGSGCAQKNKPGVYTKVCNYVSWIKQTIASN
Description: as §3, §4

[7] = mean over a range of concentrations, […]

T1 sequence (P00742 235-488 limits assumed): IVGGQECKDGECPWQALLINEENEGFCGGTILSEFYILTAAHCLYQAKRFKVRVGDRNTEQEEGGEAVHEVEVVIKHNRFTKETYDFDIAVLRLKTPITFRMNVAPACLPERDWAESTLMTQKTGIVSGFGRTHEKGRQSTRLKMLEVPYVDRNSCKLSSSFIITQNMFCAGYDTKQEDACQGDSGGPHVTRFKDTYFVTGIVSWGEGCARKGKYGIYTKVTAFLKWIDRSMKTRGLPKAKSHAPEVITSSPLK
T1 sequence (P00742 41-179 partner limits assumed): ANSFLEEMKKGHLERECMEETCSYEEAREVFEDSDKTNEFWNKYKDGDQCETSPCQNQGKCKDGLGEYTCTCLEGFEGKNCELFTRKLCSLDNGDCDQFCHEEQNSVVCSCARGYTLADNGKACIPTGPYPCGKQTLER

SMILES | Human Plasma Anticoagulation 2× Clotting time TT [1] [ng/mL] | Kass Human Thrombin [2, 7] | Human Plasma Anticoagulation 2× Clotting time APTT [3] | Human Plasma Anticoagulation 2× Clotting time PT [4] | Kass Xa [5] | Kass Trypsin [6] | Kass Human Thrombin [2]
Nc1ccc(CNC(=O)[C@@H]2CCCN2C(=O)[C@@H](CC2CCCCC2)NCC(=O)O)c(F)c1 [Example 64, HO2 CCH2 -D-Cha-Pro-4-NHCH2 -3-F-C6 H3 NH2.HCl] | 23 | 15 × 10^6 (L/mole) | 900 ng/mL | 650 ng/mL | 0.01 × 10^6 (L/mole) | – | –
N=C(N)c1ccc(CNC(=O)[C@@H]2CCCN2C(=O)[C@@H](CC2CCCCC2)NCCCC(=O)O)cc1 [Example 85, HOOCCH2 CH2 CH2 -D-Cha-pro-p-NHCH2 C6 H4 C(NH)NH2.HCl] | 4.9 | 265 × 10^6 (L/mole) | 100 ng/mL | 197 ng/mL | – | 30.8 × 10^6 (L/mole) | –
N=C(N)c1ccc(CNC(=O)[C@@H]2CCCN2C(=O)[C@H](NCC(=O)O)C2CCCCC2)cc1 [Example 86, HOOCCH2 -D-Chg-Pro-p-NHCH2 C6 H4 C(NH)NH2.HCl] | 4 | – | 81 ng/mL | 180 ng/mL | 0.63 × 10^6 (L/mole) | – | 200
N=C(N)c1ccc(CNC(=O)[C@@H]2CCCN2C(=O)[C@@H](CCC2CCCCC2)NCC(=O)O)cc1 [Example 88, HOOCCH2 -D-hCha-Pro-p-NHCH2 C6 H4 C(NH)NH2.HCl] | 4 | 410 × 10^6 (L/mole) | 100 ng/mL | 200 ng/mL | 3.9 × 10^6 (L/mole) | – | –
N=C(N)c1ccc(CNC(=O)CN(CCc2ccccc2)C(=O)CNCC(=O)O)cc1 [Example 89, HOOCCH2 -Gly-N-C6 H5 CH2 CH2 Gly-p-NHCH2 C6 H4 C(NH)NH2.HCl] | 570 | 0.14 × 10^6 (L/mole) | 51,000 ng/mL | 37,000 ng/mL | 0.071 × 10^6 (L/mole) | – | –
CCC(CC)C(=O)N[C@@H](CCC(=O)O)C(=O)N1CCC[C@H]1C(=O)NCc1ccc(C(=N)N)cc1 [Example 90, (C2 H5)2 CHCO-Glu-Pro-p-NHCH2 C6 H4 C(NH)NH2.HCl] | 330 | 0.61 × 10^6 (L/mole) | 14,500 ng/mL | 14,600 ng/mL | 0.002 × 10^6 (L/mole) | – | –
CCC(CC)C(=O)N[C@@H](CCS(C)(=O)=O)C(=O)N1CCC[C@H]1C(=O)NCc1ccc(C(=N)N)cc1 [Example 91, (C2 H5)2 CHCO-Met(O2)-pro-p-NHCH2 C6 H4 C(NH)NH2.HCl] | 63 | 3.6 × 10^6 (L/mole) | 3,000 ng/mL | 3,500 ng/mL | 0.007 × 10^6 (L/mole) | – | –
CS(=O)(=O)CC(=O)N[C@H](CC1CCCCC1)C(=O)N1CCC[C@H]1C(=O)NCc1ccc(C(=N)N)cc1 [Example 92, MeSO2 CH2 CO-D-Cha-Pro-p-NHCH2 C6 H4 C(NH)NH2.HCl] | 8.9 | 130 × 10^6 (L/mole) | 210 ng/mL | 340 ng/mL | – | 7.7 × 10^6 (L/mole) | –

From patent publication US5707966A, “Antithrombotic agents” (Eli Lilly and Company, priority 1995, dated 1998)
